Test results reported in US20240316146A1, “METHODS OF REDUCING NEUROPATHY AND NEUROPATHIC SYMPTOMS AND TREATING CANCER” (Bexion Pharmaceuticals Inc., priority 2021, published 2024).

System: A549 tumor spheroids with PBMCs
Assay: 3D-tumor spheroid T-cell killing model (Incucyte)
Type: cell-based, human
Conditions: BXQ-350 1.3 nM to 2.8 μM or Pembrolizumab 50 μg/ml; PBMCs with activation cocktail; day 6
Description: A549 human lung cancer cells, transfected with a lentivirus, were seeded in 96-wells ultra-low attachment plates at a concentration of 750 cells/well. The plates were then centrifuged at 1200 rpm for 2 min, to promote agglomeration of the cells and formation of spheroids. The plates then were incubated for three days at 37° C. After three days, freshly isolated human peripheral blood mononuclear cells (PBMCs) were added to the spheroids at a concentration of 10,000 PBMCs/well. To various wells were added one or more of: an activation cocktail containing an anti-CD3 antibody at a final concentration of 1 ng/ml and IL-12 at a final concentration of 10 ng/ml; BXQ-350 in serial dilutions from 25 μM to 1.27 nM; a positive control of Pembrolizumab at 50 μg/ml. A negative control group had no additions to the spheroids and PBMCs. The final volume of each well was then adjusted to 200 μL per well.
Plates were then left to incubate for an additional 30 minutes before being placed in the Incucyte® live cells analyzer; fluorescence was analyzed every 4 hours for 6 days. Images were then analyzed using the Incucyte® software to determine the IC50. Increased fluorescence intensity in A549 tumor cell spheroids correlates to an increased number of live Luc-A549 cells in the spheroids, and a lack of fluorescence denotes cell death.

Pembrolizumab: positive control at 50 μg/ml in the spheroid model
cell death of spheroids (in words): increased cell death by day 6
